This passage reports T/C results from PubChem BioAssay AID296 (DTP/NCI, 2004).

This experiment concerns MX-1 breast xenograft, nude mice, tumor weight T/C. Briefly: NCI In Vivo Anticancer Drug Screen. Data for tumor model Human Mammary Carcinoma MX-1 Xenograft (intrarenal inoculation) in NU/NU Swiss (nude) mice. Conditions: endpoint: mean tumor weight change, higher = larger tumour. The essentials:
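Antitumour effect measured in vivo against vehicle controls, expressed as T/C.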
For orientation: Xenograft models place foreign cells or tissue in a host animal.

[1] abbreviates: dose: 8.0 mg/kg/injection, schedule: Q01DX010 (sc), vehicle: saline.
Setting [2] is: dose: 16.0 mg/kg/injection, schedule: Q01DX010 (sc), vehicle: saline.
Setting [3] is: dose: 9.0 mg/kg/injection, schedule: Q04DX003 (sc), vehicle: saline with Tween-80.
Setting [4] is: dose: 36.0 mg/kg/injection, schedule: Q04DX003 (sc), vehicle: saline with Tween-80.
The mark [5] stands for this setting: dose: 300.0 mg/kg/injection, schedule: Q04DX003 (sc), vehicle: Klucel (hydroxypropylcellulose) (HPC).
Where [6] appears, read: dose: 150.0 mg/kg/injection, schedule: Q04DX003 (sc), vehicle: saline with Tween-80.
[7] abbreviates: dose: 300.0 mg/kg/injection, schedule: Q04DX003 (sc), vehicle: saline with Tween-80.
The mark [8] stands for this setting: dose: 12.0 mg/kg/injection, schedule: Q04DX003 (sc), vehicle: Klucel (hydroxypropylcellulose) (HPC).

Several values for one entry are separate records, joined by “and”; a condition that tells them apart may be missing. Equal entries are not always repeated. Inconclusive results are not listed.

In the case of `CCCCNCCCNCCCNC(=O)c1csc(-c2csc(CCNC(=O)C(NC(=O)C(C)C(O)C(C)NC(=O)C(NC(=O)c3nc(C(CC(N)=O)NCC(N)C(N)=O)nc(N)c3C)C(OC3OC(CO)C(O)C(O)C3OC3OC(CO)C(O)C(OC(N)=O)C3O)c3cnc[nH]3)C(C)O)n2)n1` (stereo not given), the T/C is 104 % of control under setting [1]; 73 % of control under setting [2]; 39 % of control (dose: 32.0 mg/kg/injection, schedule: Q01DX010 (sc), vehicle: saline).

Consider `Cc1c2ccncc2c(C)c2c1[nH]c1ccccc12`, for which the T/C was 63 % of control (dose: 6.25 mg/kg/injection, schedule: Q01DX010 (sc), vehicle: saline); 81 % of control (dose: 50.0 mg/kg/injection, schedule: Q01DX010 (sc), vehicle: suspension in saline); 85 % of control (dose: 200.0 mg/kg/injection, schedule: Q01DX010 (sc), vehicle: suspension in saline).

With `CN(Cc1cnc2nc(N)nc(N)c2n1)c1c(Cl)cc(C(=O)NC(CCC(=O)O)C(=O)O)cc1Cl` (stereo not given), the T/C is 86 % of control (dose: 12.5 mg/kg/injection, schedule: Q01DX010 (sc), vehicle: Klucel (hydroxypropylcellulose) (HPC)); 44 % of control (dose: 25.0 mg/kg/injection, schedule: Q01DX010 (sc), vehicle: Klucel (hydroxypropylcellulose) (HPC)); -25 % of control (dose: 50.0 mg/kg/injection, schedule: Q01DX010 (sc), vehicle: Klucel (hydroxypropylcellulose) (HPC)).

For the molecule `NC(=O)/C=C/C(=O)c1c(Cl)cccc1Cl`, the T/C was 78 % of control under setting [3] and 43 % of control under setting [4].

For `O=C(N/N=C\c1cc(Br)cc(Br)c1O)N/N=C/c1cc(Br)cc(Br)c1O`, the T/C is 72 % of control (dose: 400.0 mg/kg/injection, schedule: Q01DX010 (sc), vehicle: saline with Tween-80) and 61 % of control (dose: 800.0 mg/kg/injection, schedule: Q01DX010 (sc), vehicle: saline with Tween-80).

As to `N#CCCN(C(=S)Nc1cccc(C(F)(F)F)c1)C1CCCCC1`, the T/C runs as follows: under setting [5], 89 % of control; (dose: 2400.0 mg/kg/injection, schedule: Q04DX003 (sc), vehicle: Klucel (hydroxypropylcellulose) (HPC)) 106 % of control.

Turning to `C[CH2][Ge]([CH2]C)[CH2]C.C[CH2][Ge]([CH2]C)[CH2]C.C[CH2][Ge]([CH2]C)[O][Ge]([CH2]C)[CH2]C`, the T/C is 109 % of control under setting [6] and 79 % of control under setting [7].

Consider `CC(=O)OCC1OC(OC2=C(CC=C(C)C)C(=O)c3ccccc3C2=O)C(OC(C)=O)C(OC(C)=O)C1OC(C)=O` (stereo not given), for which the T/C by setting is: (dose: 400.0 mg/kg/injection, schedule: Q01DX010 (sc), vehicle: Klucel (hydroxypropylcellulose) (HPC)) 194 % of control; (dose: 800.0 mg/kg/injection, schedule: Q01DX010 (sc), vehicle: Klucel (hydroxypropylcellulose) (HPC)) 52 % of control.

Take `OCC1OC(n2cnc3cc(Cl)c(Cl)cc32)C(O)C1O` (stereo not given): the T/C reads like this: under setting [7], 156 % of control; (dose: 600.0 mg/kg/injection, schedule: Q04DX003 (sc), vehicle: saline with Tween-80) 114 % of control and 118 % of control; (dose: 1200.0 mg/kg/injection, schedule: Q04DX003 (sc), vehicle: saline with Tween-80) 114 % of control; (dose: 2400.0 mg/kg/injection, schedule: Q04DX003 (sc), vehicle: saline with Tween-80) 66 % of control.

Take `O=S(=O)(O)c1cc(N=C=S)ccc1/C=C/c1ccc(N=C=S)cc1S(=O)(=O)O`: where the note is “dose: 150.0 mg/kg/injection, schedule: Q04DX003 (ip), vehicle: saline”, the T/C was 47 % of control.

For `CCOC(=O)Nc1cc2c(c(N)n1)N=C(c1ccc(Cl)cc1Cl)CN2`, the T/C reads like this: (dose: 37.5 mg/kg/injection, schedule: Q04DX003 (sc), vehicle: saline with Tween-80) 79 % of control; (dose: 75.0 mg/kg/injection, schedule: Q04DX003 (sc), vehicle: saline with Tween-80) 94 % of control; under setting [6], 103 % of control and 117 % of control; under setting [7], 81 % of control and 84 % of control.

As for `C[C@H]1C[C@@H]2[C@H]([C@@H](O)C[C@@]3(C)[C@H]2CC[C@]3(O)C(=O)CO)[C@@]2(C)C=CC(=O)C=C12`, the T/C by setting is: (dose: 200.0 mg/kg/injection, schedule: Q04DX003 (sc), vehicle: Klucel (hydroxypropylcellulose) (HPC)) 33 % of control; (dose: 400.0 mg/kg/injection, schedule: Q04DX003 (sc), vehicle: Klucel (hydroxypropylcellulose) (HPC)) 31 % of control; (dose: 800.0 mg/kg/injection, schedule: Q04DX003 (sc), vehicle: Klucel (hydroxypropylcellulose) (HPC)) 30 % of control; (dose: 1600.0 mg/kg/injection, schedule: Q04DX003 (sc), vehicle: Klucel (hydroxypropylcellulose) (HPC)) 13 % of control.

Consider `CC1(C)COCN1COC1CCCCC1`, for which the T/C is 24 % of control (dose: 100.0 mg/kg/injection, schedule: Q04DX003 (sc), vehicle: saline); 32 % of control (dose: 200.0 mg/kg/injection, schedule: Q04DX003 (sc), vehicle: saline); 78 % of control (dose: 400.0 mg/kg/injection, schedule: Q04DX003 (sc), vehicle: saline); 56 % of control (dose: 800.0 mg/kg/injection, schedule: Q04DX003 (sc), vehicle: saline).

Consider `O=CC(S)CO` (stereo not given), for which the T/C (dose: 100.0 mg/kg/injection, schedule: Q04DX003 (sc), vehicle: suspension in saline) was 151 % of control.

In the case of `CCN(CC)CC[n+]1ccc2c(C)c3[nH]c4ccc(O)cc4c3c(C)c2c1`, the T/C is 82 % of control (dose: 12.5 mg/kg/injection, schedule: Q04DX003 (sc), vehicle: suspension in saline) and 77 % of control (dose: 25.0 mg/kg/injection, schedule: Q04DX003 (sc), vehicle: suspension in saline).

For the molecule `CC1OC1C(=O)C1(O)C(C)C(O)C23OC2(C(O)c2c(O)cccc2C3=O)C1O` (stereo not given), the T/C under setting [8] is 102 % of control; the T/C (dose: 24.0 mg/kg/injection, schedule: Q04DX003 (sc), vehicle: Klucel (hydroxypropylcellulose) (HPC)) is 83 % of control; the T/C (dose: 48.0 mg/kg/injection, schedule: Q04DX003 (sc), vehicle: Klucel (hydroxypropylcellulose) (HPC)) is 83 % of control.

As for `CCN(C)N=Nc1ccc(C(N)=O)cc1`, the T/C is 38 % of control (dose: 150.0 mg/kg/injection, schedule: Q04DX003 (sc), vehicle: Klucel (hydroxypropylcellulose) (HPC)) and 21 % of control under setting [5].

Take `CC1CC(C)CC(C)C(O)/C(C#N)=C/C=C/CC(C2CCCC2C(=O)O)OC(=O)CC(O)C(C)C1` (stereo not given): the T/C runs as follows: (dose: 6.0 mg/kg/injection, schedule: Q04DX003 (sc), vehicle: Klucel (hydroxypropylcellulose) (HPC)) 87 % of control; under setting [8], 79 % of control.

`CC(C)(C)NC(C1=CC(C)(C)c2ccccc2C1=O)c1ccccc1` (stereo not given): the T/C was 87 % of control (dose: 150.0 mg/kg/injection, schedule: Q04DX003 (ip), vehicle: Klucel (hydroxypropylcellulose) (HPC)) and 75 % of control (dose: 300.0 mg/kg/injection, schedule: Q04DX003 (ip), vehicle: Klucel (hydroxypropylcellulose) (HPC)).

Turning to `CC(=O)OC1COC(NC(=O)N(CCCl)N=O)C(OC(C)=O)C1OC(C)=O` (stereo not given), the T/C was 105 % of control (dose: 4.5 mg/kg/injection, schedule: Q04DX003 (sc), vehicle: saline with Tween-80); 77 % of control under setting [3]; 110 % of control (dose: 18.0 mg/kg/injection, schedule: Q04DX003 (sc), vehicle: saline with Tween-80); 82 % of control under setting [4].

`CC1(C)CC1(Br)Br`: the T/C (dose: 25.0 mg/kg/injection, schedule: Q01DX010 (sc), vehicle: saline with Tween-80) was 71 % of control; the T/C (dose: 100.0 mg/kg/injection, schedule: Q01DX010 (sc), vehicle: saline with Tween-80) was 118 % of control; the T/C (dose: 200.0 mg/kg/injection, schedule: Q01DX010 (sc), vehicle: saline with Tween-80) is 153 % of control.

Regarding `COc1cc(NCc2ccc3nc(N)nc(N)c3c2C)cc(OC)c1OC`, the T/C is 70 % of control (dose: 1.25 mg/kg/injection, schedule: Q01DX010 (sc), vehicle: sodium bicarbonate); 46 % of control (dose: 2.5 mg/kg/injection, schedule: Q01DX010 (sc), vehicle: sodium bicarbonate); 97 % of control (dose: 20.0 mg/kg/injection, schedule: Q01DX010 (sc), vehicle: sodium bicarbonate); 115 % of control (dose: 75.0 mg/kg/injection, schedule: Q04DX003 (sc), vehicle: water); 108 % of control (dose: 150.0 mg/kg/injection, schedule: Q04DX003 (sc), vehicle: water); 112 % of control (dose: 300.0 mg/kg/injection, schedule: Q04DX003 (sc), vehicle: water).

In the case of `COc1cc([C@@H]2c3cc4c(cc3[C@@H](OC3OC5COC(C)OC5C(O)C3O)[C@H]3COC(=O)[C@H]23)OCO4)cc(OC)c1O` (stereo not given in full), the T/C (dose: 2.0 mg/kg/injection, schedule: Q01DX010 (sc), vehicle: saline) was 72 % of control; the T/C (dose: 4.0 mg/kg/injection, schedule: Q01DX010 (sc), vehicle: saline) was 97 % of control; the T/C under setting [1] is 51 % of control; the T/C under setting [2] was 72 % of control.
